The assay concerns the target Poly [ADP-ribose] polymerase 1 (Homo sapiens, UniProt P09874).

In ChEMBL document CHEMBL1141047, “4-Phenyl-1,2,3,6-tetrahydropyridine, an excellent fragment to improve the potency of PARP-1 inhibitors” (Bioorg Med Chem Lett, 2005) one finds IC50 data, which are given here for 14 compounds.

Each structure is given as a SMILES string.

Sequence of Poly [ADP-ribose] polymerase 1 (P09874 whole entry): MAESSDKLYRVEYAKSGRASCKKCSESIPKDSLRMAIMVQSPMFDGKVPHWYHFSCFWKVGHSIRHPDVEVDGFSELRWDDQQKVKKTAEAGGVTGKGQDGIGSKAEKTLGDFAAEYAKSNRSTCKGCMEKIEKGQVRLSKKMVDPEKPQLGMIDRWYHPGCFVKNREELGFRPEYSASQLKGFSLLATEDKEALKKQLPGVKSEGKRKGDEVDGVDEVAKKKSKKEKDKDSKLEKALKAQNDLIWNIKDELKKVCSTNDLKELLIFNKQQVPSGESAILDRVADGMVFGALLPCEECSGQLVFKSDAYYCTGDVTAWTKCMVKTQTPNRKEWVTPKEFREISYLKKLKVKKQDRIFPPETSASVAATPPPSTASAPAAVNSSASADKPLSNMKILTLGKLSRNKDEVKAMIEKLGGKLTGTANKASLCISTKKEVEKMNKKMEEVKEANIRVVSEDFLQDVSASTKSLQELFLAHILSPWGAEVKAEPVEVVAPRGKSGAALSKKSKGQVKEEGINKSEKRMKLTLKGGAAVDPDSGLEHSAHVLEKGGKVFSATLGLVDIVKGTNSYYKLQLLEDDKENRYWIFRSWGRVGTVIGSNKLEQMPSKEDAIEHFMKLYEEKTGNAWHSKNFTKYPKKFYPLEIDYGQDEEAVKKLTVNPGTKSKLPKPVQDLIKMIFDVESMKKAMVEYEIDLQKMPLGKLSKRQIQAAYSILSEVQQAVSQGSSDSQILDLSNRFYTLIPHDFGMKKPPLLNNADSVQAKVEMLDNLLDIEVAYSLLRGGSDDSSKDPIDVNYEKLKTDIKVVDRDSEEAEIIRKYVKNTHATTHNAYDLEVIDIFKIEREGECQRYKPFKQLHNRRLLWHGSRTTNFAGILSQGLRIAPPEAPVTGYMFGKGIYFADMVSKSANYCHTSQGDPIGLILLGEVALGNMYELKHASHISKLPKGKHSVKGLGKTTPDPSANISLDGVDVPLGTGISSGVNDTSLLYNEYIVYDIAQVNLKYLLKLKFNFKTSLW
Description: In vitro inhibitory concentration against Poly(ADP-ribose) polymerase 1

One may read the IC50 as the concentration needed to halve the response being measured. High values mean weaker potency in that assay, low ones greater potency in that assay. With `O=c1[nH]nc(CCCCN2CCOCC2)c2ccccc12`, the half-inhibitory concentration (IC50) came out at 950 nM. In the case of `O=c1[nH]c2ccc(CCCCN3CC=C(c4ccccc4)CC3)cc2c2ccccc12`, the IC50 turned out to be 119 nM.

On to `O=C1NC(CCCN2CC=C(c3ccccc3)CC2)=NC2CCSCC12` (centres undefined), for which the concentration for half-maximal inhibition (IC50) was 8.9 nM.

For `O=C1NC(CCCN2CC=C(c3ccccc3)CC2)=NC2CCCC12` (centres undefined), 249 nM corresponded to half-maximal inhibition (IC50).

Regarding `CN1CCC2NC(CCCN3CC=C(c4ccccc4)CC3)=NC(=O)C2C1` (centres undefined), half-maximal inhibition (IC50) required 6100 nM. `O=c1[nH]c2cc(CN3CCOCC3)ccc2c2ccccc12`: 23 nM corresponded to half-maximal inhibition (IC50). For `O=C1N=C(CCCN2CC=C(c3ccccc3)CC2)NC2CCNCC12` (centres undefined), 8600 nM corresponded to half-maximal inhibition (IC50). Under `O=C1N=C(CCCN2CC=C(c3ccccc3)CC2)NC2CCOCC12` (centres undefined) stands 200 nM; under `O=C1N=C(CCCN2CC=C(c3ccccc3)CC2)NC2CCCCCC12` (centres undefined), 495 nM; under `O=C1N=C(CCCN2CC=C(c3ccccc3)CC2)NC2CCCCC12` (centres undefined), 20 nM. As to `CC1CCC2NC(CCCN3CC=C(c4ccccc4)CC3)=NC(=O)C2C1` (centres undefined), inhibition was half-maximal at 274 nM (IC50). In turn, `CC1=NC(=O)C2CSCCC2N1` (centres undefined) showed an IC50 of 467 nM. Take `CC1(C)CCC2NC(CCCN3CC=C(c4ccccc4)CC3)=NC(=O)C2C1` (centres undefined): the IC50 was more than 10000 nM.

`Oc1nnc(CCCCCN2CCOCC2)c2ccccc12`: inhibition was half-maximal at 119 nM (IC50).
